Test system: MIA PaCa-2
Experiment: SRB assay, cancer cell growth, pancreatic cancer cell line MIA PaCa-2
Assay type: cell-based
Details: MIA PaCa-2
Procedure: As a comparison, omeprazole (KN510) and trimetazidine (KN713), a 3-ketoacyl CoA thiolase inhibitor, were co-treated. […] After cell inoculation, 96-well cell culture plates were incubated for 24 hours before the addition of experimental drugs. […] The cells were then incubated in a CO2 incubator for 48 hours, after which the assay was terminated by the addition of cold TCA. Cells were fixed in situ by gently adding 50 μl of cold 50% (w/v) TCA (final concentration: 10% TCA) and incubated at 4° C. for 60 min. The supernatant was discarded, and the plate was washed five times with distilled water and air dried. Sulforhodamine B (SRB) solution (100 μl) of 0.4% (w/v) in 1% acetic acid was added to each well, and the plate was left at room temperature for 10 min. After staining, unbound dye was removed by washing five times with 1% acetic acid, and the plate was air-dried. The bound dye was then solubilized with 10 mM trizma base, and the absorbance was recorded at 515 nm using an automated plate reader. […] The predicted synergistic activity of a combination of the present invention can be calculated using the Colby Equation in Equation 1 (S.R. Colby, Weeds, 1967, pp. 15, 20-22): α and β are the measured anti-cancer activity of each compound alone, and E is the predicted anti-cancer activity of a mixture of α and β as a prediction. In the present invention, the actual measure of anti-cancer activity of the combination treatment was the inhibition rate of cancer cell growth (%), and the predicted value (E) of the combination treatment was measured by substituting it into the above Colby Equation.

With `COc1ccc(CN2CCNCC2)c(OC)c1OC` [KN713, trimetazidine] the GI50 (Homo sapiens, 48 hours, read-out: GI50 (Half maximal growth inhibition concentration)) was 1810 µM, the “Cancer cell growth rate Average (%)” value (Conc. 10^−2M, Table 1) was −29.68% and the “Cancer cell growth rate Average (%)” value (Conc. 10^−3M, Table 1) was 95.03%. For the same compound, the “Cancer cell growth rate Average (%)” value (Conc. 10^−4M, Table 1) was 95.50%, the “Cancer cell growth rate Average (%)” value (Conc. 10^−5M, Table 1) was 94.52% and the “Cancer cell growth rate Average (%)” value (Conc. 10^−6M, Table 1) was 97.75%. The “Cancer cell growth rate Average (%)” value (Conc. 10^−7M, Table 1) was 97.85% and the “Cancer cell growth rate Average (%)” value (comparative example, Table 3, KN713 2.5 mM) was 88.90%.

Reference: US20250170140A1, “PHARMACEUTICAL COMPOSITION FOR PREVENTING OR TREATING CANCER COMPRISING CARNITINE ACYLCARNITINE CARRIER INHIBITOR AND PEROXISOMAL BETA OXIDATION INHIBITOR” (priority 2021, published 2025)
